According to patent US20090252751A1, “Immune adjuvant comprising ubiquinone” (priority 2007, published 2009):

How the values were obtained:
Format in all cases: in vivo
Balb/c mice [1] = assay: Measurement of IgG1/IgG2 ratio in blood sample as index of Th2/Th1 balance (Test Example 2)
Description: The blood sample collected on the 25th day from the start of the test was provided, and the IgG1/IgG2 ratio was measured as an index of Th2/Th1 balance.
Further, a blood sample obtained by inoculating only the antigenic substance by intraperitoneal administration instead of the dermal administration at the same time as in the administration schedule in Test Example 1 was used as a control blood sample for comparison.
The IgG1/IgG2 ratio was measured with a Mouse Monoclonal Antibody Isotyping Reagents kit (SIGMA).
Specifically, a mouse serum was diluted with PBS by a factor of 1000 to give a solution. The solution (100 μL) was added to wells in a plate and was incubated at 37° C. for one hr. Next, each well was washed three times with PBS, and 100 μL of isotyping specific reagents (reagents containing IgA, IgG1, IgG2a, and IgG2b), which had been diluted by a factor of 1000, were added to the wells followed by incubation at room temperature for 30 min. Each well was washed three times with PBST. A peroxidase labelled […] (manufactured by SIGMA) (100 μL), which had been diluted with PBST by a factor of 5000, was added to the wells, and the wells were allowed to stand at room temperature for one hr. The wells were then washed three times with PBST. […] For each well, the absorbance was measured with Multiscan Ascent (manufactured by Thermo Labsystems, wave length 405 nm).

mice = assay: Production amount of antibody in mice by ELISA with CoQ2, CoQ4, CoQ6 or CoQ10 as immunoadjuvant (Test Example 3); settings: used as immunoadjuvant together with antigenic substance; serum sample on the 25th day; ELISA absorbance (FIG. 3)
Description: The following test was carried out according to the procedure of Text example 1 by using ELISA to confirm the amount of antibody in mice produced upon the administration of coenzyme Q2 (n=2; CoQ2), coenzyme Q4 (n=4; CoQ4), coenzyme Q6 (n=6; CoQ6) or coenzyme Q10 (n=10; CoQ10) together with an antigenic substance. The case where only an antigenic substance had been administered was selected as a reference example in the test.
As a result, the average of the absorbance for the serum sample on the 25th day from the start of the test in each group was as shown in FIG. 3.

Balb/c mice [2] = assay: Production amount of antibody in mouse serum by ELISA after dermal administration of antigenic substance with immunoadjuvant (Test Example 1)

| Compound | production amount of the antibody compared with the case where only the antigenic substance was administered (mice) | other results |
| --- | --- | --- |
| COC1=C(OC)C(=O)C(C/C=C(\C)CC/C=C(\C)CC/C=C(\C)CC/C=C(\C)CC/C=C(\C)CC/C=C(\C)CC/C=C(\C)CC/C=C(\C)CC/C=C(\C)CCC=C(C)C)=C(C)C1=O [coenzyme Q10] | larger | IgG1/IgG2 ratio (given as average of the absorbance) (Balb/c mice [1]; dermal administration of the antigenic substance together with adjuvant, blood sample on the 25th day): 2.28; average±standard error of the absorbance (amount of produced antibody, ELISA) (Balb/c mice [2]; dermal administration (tape preparation), serum sample on the 25th day from the start of the test, serum diluted 1000-fold, 405 nm, n=4): 0.670±0.033 |
| COC1=C(OC)C(=O)C(C/C=C(\C)CC/C=C(\C)CC/C=C(\C)CCC=C(C)C)=C(C)C1=O [coenzyme Q4] | larger |  |
| cholera toxin [reference compound] |  | IgG1/IgG2 ratio (given as average of the absorbance) (Balb/c mice [1]; mouse, in vivo): 1.46; average±standard error of the absorbance (amount of produced antibody, ELISA) (Balb/c mice [2]; mouse, in vivo): 0.551±0.202 |
| COC1=C(OC)C(=O)C(C/C=C(\C)CCC=C(C)C)=C(C)C1=O [coenzyme Q2] | larger |  |
| COC1=C(OC)C(=O)C(C/C=C(\C)CC/C=C(\C)CC/C=C(\C)CC/C=C(\C)CC/C=C(\C)CCC=C(C)C)=C(C)C1=O [coenzyme Q6] | larger |  |
